Laboratory results: patent US20080051453A1, “Sorbic acid analog co-crystals” (priority 2006, published 2008)

Experiment: Pharmacokinetic parameters in male cynomolgus monkeys after nasogastric gavage (suspension) or oral (tablet) administration
Assay type: in vivo
Conditions: for mean AUC relative to the suspension formulation / mean Cmax relative to the suspension formulation: oral, male cynomolgus monkeys, N=4/group
Text: Pharmacokinetic Parameters and Summary Statistics for Male Cynomolgus Monkeys Following Nasogastric Gavage (2% Pluronic F108 in OraPlus Suspension) or Oral (Tablet Formulations) Administration (N=4/group)

[1] = "in situ" sorbic acid cocrystal/physical blend tablet (first mention, % CV~50-60)
[2] = tablet printed again as "in situ" sorbic acid cocrystal/physical blend tablet (second mention, % CV~30-45)

mean AUC relative to the suspension formulation of Example 4 (cynomolgus monkey, in vivo, po)	mean Cmax relative to the suspension formulation of Example 4 (cynomolgus monkey, in vivo, po)	mean AUC relative to the suspension formulation [1]	mean Cmax relative to the suspension formulation [1]	mean AUC relative to the suspension formulation [2]	mean Cmax relative to the suspension formulation [2]	Compound
17-19%	17-19%	–	–	–	–	CC(=O)Nc1nc2c(Oc3cc(-c4ccc(C(F)(F)F)cc4)ncn3)cccc2s1 [Example 4, N-(4-(6-(4-(trifluoromethyl)phenyl)pyrimidin-4-yloxy)benzo[d]thiazol-2-yl)acetamide freebase]
–	–	52-63%	52-63%	approximately 65%	approximately 65%	N-(4-(6-(4-(trifluoromethyl)phenyl)pyrimidin-4-yloxy)benzo[d]thiazol-2-yl)acetamide sorbic acid co-crystal [Example 5]
